Reference: ChEMBL document CHEMBL4811281, “Identification of aryl sulfonamides as novel and potent inhibitors of NaV1.5” (Bioorg Med Chem Lett, 2021)
pIC50: −log10 of the molar value.

Legend:
[1] = target: Sodium channel protein type 5 subunit alpha (Homo sapiens, UniProt Q14524); assay: Inhibition of human Nav1.5 by automated voltage clamp electrophysiology
[2] = Intrinsic clearance in mouse liver microsomes; format: ADME, Microsome; conditions: read-out: CLH
[3] = Intrinsic clearance in human liver microsomes; format: ADME, Microsome; conditions: read-out: CLH

Sequence of Sodium channel protein type 5 subunit alpha (Q14524 whole entry): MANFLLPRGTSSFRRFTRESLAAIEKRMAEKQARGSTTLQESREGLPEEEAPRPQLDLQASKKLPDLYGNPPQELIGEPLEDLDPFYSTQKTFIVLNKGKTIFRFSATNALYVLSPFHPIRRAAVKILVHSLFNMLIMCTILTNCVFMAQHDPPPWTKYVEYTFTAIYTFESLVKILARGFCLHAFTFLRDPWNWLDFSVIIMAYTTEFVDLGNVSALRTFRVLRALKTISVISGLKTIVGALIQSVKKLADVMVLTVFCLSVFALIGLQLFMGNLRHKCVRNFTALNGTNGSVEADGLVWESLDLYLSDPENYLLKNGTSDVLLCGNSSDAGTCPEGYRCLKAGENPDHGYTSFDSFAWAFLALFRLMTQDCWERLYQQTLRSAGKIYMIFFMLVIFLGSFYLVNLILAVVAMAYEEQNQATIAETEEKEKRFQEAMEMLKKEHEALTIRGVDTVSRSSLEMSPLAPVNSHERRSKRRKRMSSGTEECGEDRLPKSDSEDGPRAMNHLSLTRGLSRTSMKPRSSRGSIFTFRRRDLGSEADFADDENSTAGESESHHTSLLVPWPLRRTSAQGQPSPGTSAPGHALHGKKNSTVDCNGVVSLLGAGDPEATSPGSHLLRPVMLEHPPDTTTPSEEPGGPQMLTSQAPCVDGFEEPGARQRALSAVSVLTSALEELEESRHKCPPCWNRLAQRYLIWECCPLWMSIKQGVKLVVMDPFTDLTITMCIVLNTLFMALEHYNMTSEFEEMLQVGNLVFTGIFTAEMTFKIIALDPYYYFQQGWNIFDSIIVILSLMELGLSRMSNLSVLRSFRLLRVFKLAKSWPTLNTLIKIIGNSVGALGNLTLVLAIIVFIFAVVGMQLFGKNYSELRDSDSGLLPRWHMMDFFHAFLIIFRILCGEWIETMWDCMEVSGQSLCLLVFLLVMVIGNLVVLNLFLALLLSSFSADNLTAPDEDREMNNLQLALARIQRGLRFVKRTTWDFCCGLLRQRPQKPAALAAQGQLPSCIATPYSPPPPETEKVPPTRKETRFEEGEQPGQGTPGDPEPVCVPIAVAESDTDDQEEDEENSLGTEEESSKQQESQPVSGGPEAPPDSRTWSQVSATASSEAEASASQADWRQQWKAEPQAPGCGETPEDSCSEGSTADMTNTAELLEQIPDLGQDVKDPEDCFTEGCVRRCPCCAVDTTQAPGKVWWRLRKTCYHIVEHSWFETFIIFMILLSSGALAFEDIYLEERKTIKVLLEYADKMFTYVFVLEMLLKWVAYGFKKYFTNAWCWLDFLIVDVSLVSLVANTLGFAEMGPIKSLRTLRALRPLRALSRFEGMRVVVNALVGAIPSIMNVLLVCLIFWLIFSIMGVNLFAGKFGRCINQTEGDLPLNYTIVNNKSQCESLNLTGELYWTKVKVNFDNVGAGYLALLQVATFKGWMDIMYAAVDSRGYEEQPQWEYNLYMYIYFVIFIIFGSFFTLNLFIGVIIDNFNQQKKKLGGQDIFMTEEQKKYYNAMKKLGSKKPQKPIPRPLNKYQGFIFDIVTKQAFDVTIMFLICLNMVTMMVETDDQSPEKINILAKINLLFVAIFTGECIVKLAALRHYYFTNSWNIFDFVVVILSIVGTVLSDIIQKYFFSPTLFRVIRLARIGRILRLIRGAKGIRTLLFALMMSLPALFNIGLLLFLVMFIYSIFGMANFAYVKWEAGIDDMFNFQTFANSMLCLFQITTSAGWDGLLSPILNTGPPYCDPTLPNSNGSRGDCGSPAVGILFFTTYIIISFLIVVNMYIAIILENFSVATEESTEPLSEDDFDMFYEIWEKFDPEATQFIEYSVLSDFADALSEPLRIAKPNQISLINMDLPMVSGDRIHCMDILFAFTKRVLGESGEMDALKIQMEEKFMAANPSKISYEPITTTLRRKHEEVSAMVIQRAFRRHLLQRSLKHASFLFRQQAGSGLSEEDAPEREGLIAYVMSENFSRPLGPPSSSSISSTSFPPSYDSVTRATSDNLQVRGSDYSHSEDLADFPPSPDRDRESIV

| Structure (SMILES) | pIC50 [1] | CLint scaled [2] [mL/min/kg] | CLint scaled [3] [mL/min/kg] |
| --- | --- | --- | --- |
| O=S(=O)(Nc1cscn1)c1cc(F)c(O[C@H]2CCN(CC(F)(F)F)C[C@@H]2c2ccc(F)c(F)c2)cc1F (racemic) | 6.12 | 70 | 14 |
| O=S(=O)(Nc1ccncn1)c1cc(F)c(O[C@H]2CCN(CC(F)(F)F)C[C@@H]2c2ccccc2)cc1F (racemic) | < 4.52 |  |  |
| O=S(=O)(Nc1cccc(F)n1)c1cc(F)c(O[C@H]2CCN(CC(F)(F)F)C[C@@H]2c2ccccc2F)cc1F (racemic) | 6.17 | 71 | 17 |
| O=S(=O)(Nc1cccc(F)n1)c1cc(F)c(O[C@H]2CCN(CC(F)(F)F)C[C@@H]2c2ccc(F)cc2F)cc1F (racemic) | 6.33 | 49 | 13 |
| O=S(=O)(Nc1ccccn1)c1cc(F)c(O[C@H]2CCN(CC(F)(F)F)C[C@@H]2c2ccccc2)cc1F (racemic) | 5.36 |  |  |
| O=S(=O)(Nc1cccnn1)c1cc(F)c(O[C@H]2CCN(CC(F)(F)F)C[C@@H]2c2ccccc2)cc1F (racemic) | 4.59 |  |  |
| O=S(=O)(Nc1ncc(F)s1)c1cc(F)c(O[C@H]2CCN(CC(F)(F)F)C[C@@H]2c2ccccc2)cc1F (racemic) | 5.33 |  |  |
| O=S(=O)(Nc1cccc(F)n1)c1cnc(O[C@H]2CCN(CC(F)(F)F)C[C@@H]2c2ccc(F)c(F)c2)c(F)c1 (racemic) | 5.81 | 63 | 8.4 |
| O=S(=O)(Nc1nncs1)c1cc(F)c(O[C@H]2CCN(CC(F)(F)F)C[C@@H]2c2ccccc2)cc1F (racemic) | 4.60 |  |  |
| CS(=O)(=O)c1cccc([C@H]2CN(CC(F)(F)F)CC[C@@H]2Oc2cc(F)c(S(=O)(=O)Nc3cccc(F)n3)cc2F)c1 (racemic) | < 4.52 |  |  |
| O=S(=O)(Nc1ncns1)c1cc(F)c(O[C@H]2CCN(CC(F)(F)F)C[C@@H]2c2ccccc2)cc1F (racemic) | 5.11 |  |  |
| N#Cc1cccc([C@H]2CN(CC(F)(F)F)CC[C@@H]2Oc2cc(F)c(S(=O)(=O)Nc3cccc(F)n3)cc2F)c1 (racemic) | 5.34 |  |  |
| O=S(=O)(Nc1ncccn1)c1cc(F)c(O[C@H]2CCN(CC(F)(F)F)C[C@@H]2c2ccccc2)cc1F (racemic) | 5.15 |  |  |
| O=S(=O)(Nc1cccc(F)n1)c1cc(F)c(O[C@H]2CCN(CC(F)(F)F)C[C@@H]2c2ccc(F)c(F)c2)c(F)c1F (racemic) | 7.51 | 65 | 14 |
| O=S(=O)(Nc1cc(F)ccn1)c1cc(F)c(O[C@H]2CCN(CC(F)(F)F)C[C@@H]2c2ccccc2)cc1F (racemic) | 5.89 |  |  |
| O=S(=O)(Nc1cccc(F)n1)c1cc(F)c(O[C@H]2CCN(CC(F)(F)F)C[C@@H]2c2ccc(F)c(F)c2)cc1F (racemic) | 6.59 | 49 | 7.5 |
| O=S(=O)(Nc1cccc(F)n1)c1cc(F)c(O[C@H]2CCN(CC(F)(F)F)C[C@@H]2c2ccc(F)c(F)c2)c(F)c1 (stereo in doubt; (+)-6) | 6.77 |  |  |
| O=S(=O)(Nc1ncccc1F)c1cc(F)c(O[C@H]2CCN(CC(F)(F)F)C[C@@H]2c2ccccc2)cc1F (racemic) | 5.30 |  |  |
| O=S(=O)(Nc1cccc(F)n1)c1cc(F)c(O[C@H]2CCN(CC(F)(F)F)C[C@@H]2c2ccc(F)cc2)cc1F (racemic) | 6.21 | 62 | 11 |
| O=S(=O)(Nc1cccc(F)n1)c1cc(F)c(O[C@H]2CCN(CC(F)(F)F)C[C@@H]2c2ccc(F)c(F)c2)c(F)c1 (racemic) | 7.19 | 65 | 15 |
| O=S(=O)(Nc1cccc(F)n1)c1cc(F)c(OC2CCN(CC(F)(F)F)CC2c2ccc(F)c(F)c2)cc1F (single isomer, unassigned; (+)) | 6.37 |  |  |
| O=S(=O)(Nc1cccc(Cl)n1)c1cc(F)c(O[C@H]2CCN(CC(F)(F)F)C[C@@H]2c2ccccc2)cc1F (racemic) | 5.96 |  |  |
| O=S(=O)(Nc1ccc(F)cn1)c1cc(F)c(O[C@H]2CCN(CC(F)(F)F)C[C@@H]2c2ccccc2)cc1F (racemic) | 4.88 |  |  |
| O=S(=O)(Nc1cccc(C(F)(F)F)n1)c1cc(F)c(O[C@H]2CCN(CC(F)(F)F)C[C@@H]2c2ccccc2)cc1F (racemic) | 5.20 |  |  |
